Values quoted from earlier work in patent US20250367333A1, “LIPID NANOPARTICLE FOR RADIATION THERAPY, MANUFACTURING METHOD, COMBINATION COMPOSITION, AND KIT” (KABUSHIKI KAISHA TOSHIBA, priority 2024, published 2025).

Details: radioactive material

For `[At]` [astatine], the half-life is listed as “approximately 7 hours”.
